Experimental data: ChEMBL document CHEMBL5512688 (J Med Chem, 2024)
pIC50: −log10 of the molar value.

Key:
Wee1-like protein kinase = Wee1-like protein kinase (Homo sapiens, UniProt P30291); assay: Inhibition of human Wee1 (215 to 647 residues) using polyornithine/tyrosine (4:1) as substrate incubated for 5 mins in presence of ATP by micro beta plate reader analysis
A-427 = assay: Antiproliferative activity against human A-427 cells assessed as inhibition of cell growth incubated for 72 hrs by CCK-8 assay; type: functional, cell-based; details: A-427, 72 h
[1] = Metabolic stability in human liver microsome assessed as parent compound remaining measured at 60 mins by LCMS/MS analysis; type: ADME; details: liver microsomes, read-out: Stability
[2] = Metabolic stability in mouse liver microsome assessed as parent compound remaining measured at 60 mins by LCMS/MS analysis; type: ADME; details: liver microsomes, read-out: Stability
[3] = AUC (0 to 24 hrs) in ICR mouse at 1 mg/kg, iv measured upto 24 hrs by LC-MS/MS analysis; type: ADME, organism-based; details: in vivo
[4] = Clearance in ICR mouse at 1 mg/kg, iv measured upto 24 hrs by LC-MS/MS analysis; type: ADME, organism-based; details: in vivo
[5] = Volume of distribution in ICR mouse at 1 mg/kg, iv measured upto 24 hrs by LC-MS/MS analysis; type: ADME, organism-based; details: in vivo
[6] = Half life in ICR mouse at 1 mg/kg, iv measured upto 24 hrs by LC-MS/MS analysis; type: ADME, organism-based; details: in vivo
[7] = AUC (0 to 24 hrs) in ICR mouse at 60 mg/kg, IG measured upto 24 hrs by LC-MS/MS analysis; type: ADME, organism-based; details: in vivo, po
[8] = Bioavailability in ICR mouse at 60 mg/kg, IG measured upto 24 hrs by LC-MS/MS analysis; type: ADME, organism-based; details: in vivo, po
[9] = Half life in ICR mouse at 60 mg/kg, IG measured upto 24 hrs by LC-MS/MS analysis; type: ADME, organism-based; details: in vivo, po

Chain of Wee1-like protein kinase (P30291 whole entry, the tested form may be a part): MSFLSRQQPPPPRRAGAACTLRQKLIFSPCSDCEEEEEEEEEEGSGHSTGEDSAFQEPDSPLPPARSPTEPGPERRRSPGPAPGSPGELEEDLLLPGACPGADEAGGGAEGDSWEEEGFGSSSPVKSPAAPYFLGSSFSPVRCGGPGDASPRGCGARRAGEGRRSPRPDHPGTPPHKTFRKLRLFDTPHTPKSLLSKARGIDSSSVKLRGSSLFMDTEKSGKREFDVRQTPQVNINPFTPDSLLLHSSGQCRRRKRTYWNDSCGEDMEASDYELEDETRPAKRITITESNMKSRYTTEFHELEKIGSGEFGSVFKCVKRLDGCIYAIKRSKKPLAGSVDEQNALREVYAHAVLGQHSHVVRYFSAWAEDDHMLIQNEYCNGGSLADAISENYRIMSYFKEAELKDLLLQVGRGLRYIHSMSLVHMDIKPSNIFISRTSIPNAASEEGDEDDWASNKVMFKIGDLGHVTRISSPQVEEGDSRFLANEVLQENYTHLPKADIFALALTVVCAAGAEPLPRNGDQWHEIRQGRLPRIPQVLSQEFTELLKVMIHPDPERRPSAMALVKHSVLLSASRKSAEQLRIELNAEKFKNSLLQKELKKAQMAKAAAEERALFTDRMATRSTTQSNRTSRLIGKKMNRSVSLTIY

Compound | pIC50 (Wee1-like protein kinase) | pIC50 (A-427) | remaining at 1 h [1] [%] | remaining at 1 h [2] [%] | other results
C=CCn1c(=O)c2cnc(Nc3ccc(N4CCN(C)CC4)cc3)nc2n1-c1ccc2cnn(C(C)C)c2c1 | 8.62 | 6.50 |  |  | 
C=CCn1c(=O)c2cnc(Nc3ccc(N4CCN(CCN(C)C)CC4)cc3)nc2n1-c1cccc(-c2cnccn2)n1 | 8.51 | 6.62 | 67.2 | 56.9 | 
C=CCn1c(=O)c2cnc(Nc3ccc(N4C5CCC4CN(C)C5)cc3)nc2n1-c1cccc(-c2cnccn2)n1 | 8.70 | 6.22 |  |  | 
CN1CCN(c2ccc(Nc3ncc4c(=O)n(CC5CC5)n(-c5cccc(-c6cnccn6)n5)c4n3)cc2)CC1 | 7.48 | 5.73 |  |  | 
C=CCCn1c(=O)c2cnc(Nc3ccc(N4CCN(C)CC4)cc3)nc2n1-c1cccc(-c2cnccn2)n1 | 8.03 | 5.98 |  |  | 
CC(C)n1c(=O)c2cnc(Nc3ccc(N4CCN(C)CC4)cc3)nc2n1-c1cccc(-c2cnccn2)n1 | 8.47 | 5.85 |  |  | 
C=CCn1c(=O)c2cnc(Nc3ccc(N4CCN(C)CC4)cc3)nc2n1-c1cccc(-n2ccc(C)n2)n1 | 8.39 | 6.05 |  |  | 
C=CCn1c(=O)c2cnc(Nc3ccc(N4CCN(C)CC4)cc3)nc2n1-c1cccc(-c2cnc(Cl)cn2)n1 | 8.66 | 6.36 |  |  | 
C=CCn1c(=O)c2cnc(Nc3ccc(N4CCN(C)CC4)cc3)nc2n1-c1ccc2ncn(C(C)C)c2c1 | 8.68 | 6.51 |  |  | 
C=CCn1c(=O)c2cnc(Nc3ccc(N4C[C@@H](C)N[C@@H](C)C4)cc3)nc2n1-c1cccc(-c2cnccn2)n1 | 8.77 | 6.63 | 44.1 | 17.8 | 
COCCn1c(=O)c2cnc(Nc3ccc(N4CCN(C)CC4)cc3)nc2n1-c1cccc(-c2cnccn2)n1 | 7.80 | 6.29 |  |  | 
C=CCn1c(=O)c2cnc(Nc3ccc(N4C[C@H]5C[C@@H]4CN5C)cc3)nc2n1-c1cccc(-c2cnccn2)n1 | 8.64 | 6.65 | 73.5 | 40.5 | 
C=CCn1c(=O)c2cnc(Nc3ccc(N4CCN(C)CC4)cc3)nc2n1-c1cccc(-n2cc(C)cn2)n1 | 8.43 | 6.66 | 6.06 | 11.2 | 
C=CCn1c(=O)c2cnc(Nc3ccc(N4CCNCC4)cc3)nc2n1-c1cccc(-c2ncccn2)n1 | 9.05 | 6.49 | 90.9 | 99.1 | AUC(0-t) at 24 h [3]: 199 ng·h/mL; clearance [4]: 82 mL/min/kg; Vd [5]: 5.66 L/kg; half-life [6]: 1.24 h; AUC(0-t) at 24 h [7]: 235 ng·h/mL; bioavailability [8]: 1.96%
C=CCn1c(=O)c2cnc(Nc3ccc(N4CCN(C)CC4)cc3)nc2n1-c1cccc(-n2cnc(C)c2)n1 | 8.42 | 6.46 | 7.35 | 18.6 | 
C=CCn1c(=O)c2cnc(Nc3ccc(N4C[C@@H](C)N[C@@H](C)C4)cc3)nc2n1-c1cccc(-c2ncccn2)n1 | 8.62 | 6.47 | 51.3 | 83.9 | AUC(0-t) at 24 h [3]: 35.5 ng·h/mL; clearance [4]: 427 mL/min/kg; half-life [9]: 5.42 h; Vd [5]: 60.5 L/kg; half-life [6]: 1.72 h; AUC(0-t) at 24 h [7]: 1850 ng·h/mL; bioavailability [8]: 87.1%
C=CCn1c(=O)c2cnc(Nc3ccc(N4CCN(C)CC4)cc3)nc2n1-c1cccc(-n2nc(C)cc2C)n1 | 8.66 | 6.02 |  |  | 
C=CCn1c(=O)c2cnc(Nc3ccc(N4CCN(C)CC4)cc3)nc2n1-c1ccc2ccccc2n1 | 8.66 | 6.02 |  |  | 

Compound | pIC50 (Wee1-like protein kinase) | pIC50 (A-427) | remaining at 1 h [1] [%] | remaining at 1 h [2] [%] | other results
C=CCn1c(=O)c2cnc(Nc3ccc(N4CCN(C)CC4)cc3)nc2n1-c1cccc(-c2cc(F)ccn2)n1 | 8.62 | 6.62 | 30.7 | 13.4 | 
C=CCn1c(=O)c2cnc(Nc3ccc(N4CCN(C)CC4)cc3)nc2n1-c1cccc(-c2ncc(C#N)cn2)n1 | 8.62 | 6.47 |  |  | 
C=CCn1c(=O)c2cnc(Nc3ccc4c(c3)CN(C)CC4)nc2n1-c1cccc(-c2cccnn2)n1 | 8.64 | 6.61 | 42.2 | 39.4 | 
C=CCn1c(=O)c2cnc(Nc3ccc(N4CCN(C)CC4)cc3)nc2n1-c1cccc(-n2cccn2)n1 | 8.62 | 6.60 | 18 | 8.82 | 
C=CCn1c(=O)c2cnc(Nc3ccc(N4CCN(C)CC4)cc3)nc2n1-c1cc(-c2cnccn2)ccn1 | 7.90 | 5.45 |  |  | 
C=CCn1c(=O)c2cnc(Nc3ccc(N4CCN(C)CC4)cc3)nc2n1-c1cccc(-c2ncc(F)cn2)n1 | 8.49 | 6.34 | 49.8 | 48.2 | 
C=CCn1c(=O)c2cnc(Nc3ccc(N4CCN(C)CC4)cc3)nc2n1-c1cccc(-c2cnn(C(F)F)c2)n1 | 8.60 | 6.43 |  |  | 
C=CCn1c(=O)c2cnc(Nc3ccc4c(c3)CNCC4)nc2n1-c1cccc(-c2ncccn2)n1 | 8.85 | 6.55 | 81 | 65.8 | 
C=CCn1c(=O)c2cnc(Nc3ccc(N4CCN(CCN(C)C)CC4)cc3)nc2n1-c1cccc(-c2ncccn2)n1 | 8.51 | 6.25 | 106 | 94.7 | 
C=CCn1c(=O)c2cnc(Nc3ccc(C4CCN(C)CC4)cc3)nc2n1-c1cccc(-c2cccnn2)n1 | 8.74 | 6.81 | 67 | 44.7 | 
C=CCn1c(=O)c2cnc(Nc3ccc(N4CCN(C)CC4)c(OC)c3)nc2n1-c1cccc(-c2cccnn2)n1 | 8.60 | 6.64 | 34.8 | 53.1 | 
C=CCn1c(=O)c2cnc(Nc3ccc(N4CCN(C)CC4)cc3)nc2n1-c1cccc(-c2cnn(C)c2)n1 | 8.59 | 6.21 |  |  | 
C=CCn1c(=O)c2cnc(Nc3ccc(N4CCN(C)CC4)cc3)nc2n1-c1cccc(-n2cc(F)cn2)n1 | 8.35 | 6.48 | 3.89 | 15.9 | 
C=CCn1c(=O)c2cnc(Nc3ccc(N4CCN(C)CC4)cc3)nc2n1-c1cccc(-c2ccc(F)cn2)n1 | 8.74 | 6.49 | 29.7 | 18.1 | 
C=CCn1c(=O)c2cnc(Nc3ccc(N4C5CCC4CN(C)C5)cc3)nc2n1-c1cccc(-c2cccnn2)n1 | 8.52 | 6.65 | 28.6 | 23.8 | 
C=CCn1c(=O)c2cnc(Nc3ccc(N4C[C@@H](C)N[C@@H](C)C4)cc3)nc2n1-c1cccc(-c2cccnn2)n1 | 8.68 | 6.62 | 74.1 | 87.1 | AUC(0-t) at 24 h [3]: 86.7 ng·h/mL; clearance [4]: 178 mL/min/kg; Vd [5]: 20.3 L/kg; half-life [6]: 1.56 h; AUC(0-t) at 24 h [7]: 20.8 ng·h/mL; bioavailability [8]: 0.4%
C=CCn1c(=O)c2cnc(Nc3ccc(N4CCN(C)CC4)cc3)nc2n1-c1cccc(-c2cccc(F)n2)n1 | 8.66 | 6.55 | 32.5 | 18.4 | 
C=CCn1c(=O)c2cnc(Nc3ccc(N4CCN(C)CC4)cc3)nc2n1-c1cncc(-c2cnccn2)c1 | 7.87 | 5.38 |  |  | 
